Experimental data taken from ChEMBL document CHEMBL1140970, “Synthesis and in vitro anti-Helicobacter pylori activity of N-[5-(5-nitro-2-heteroaryl)-1,3,4-thiadiazol-2-yl]thiomorpholines and related compounds” (2008).

What was measured:
Assay type in all cases: functional
Settings in all cases: read-out: IZ
Helicobacter pylori [1] = assay: Antibacterial activity against metronidazole-sensitive Helicobacter pylori at 8 ug/disk after 3 to 5 days by filter paper disk diffusion method
Helicobacter pylori [2] = assay: Antibacterial activity against metronidazole-sensitive Helicobacter pylori at 16 ug/disk after 3 to 5 days by filter paper disk diffusion method
Helicobacter pylori [3] = assay: Antibacterial activity against metronidazole-sensitive Helicobacter pylori at 32 ug/disk after 3 to 5 days by filter paper disk diffusion method
Helicobacter pylori [4] = assay: Antibacterial activity against metronidazole-resistant Helicobacter pylori at 8 ug/disk after 3 to 5 days by filter paper disk diffusion method
Helicobacter pylori [5] = assay: Antibacterial activity against metronidazole-resistant Helicobacter pylori at 16 ug/disk after 3 to 5 days by filter paper disk diffusion method
Helicobacter pylori [6] = assay: Antibacterial activity against metronidazole-resistant Helicobacter pylori at 32 ug/disk after 3 to 5 days by filter paper disk diffusion method
Helicobacter pylori [7] = assay: Antibacterial activity against Helicobacter pylori clinical isolates at 0.5 ug/disk after 3 to 5 days by filter paper disk diffusion method
Helicobacter pylori [8] = assay: Antibacterial activity against Helicobacter pylori clinical isolates at 1 ug/disk after 3 to 5 days by filter paper disk diffusion method
Helicobacter pylori [9] = assay: Antibacterial activity against Helicobacter pylori clinical isolates at 2 ug/disk after 3 to 5 days by filter paper disk diffusion method
Helicobacter pylori [10] = assay: Antibacterial activity against Helicobacter pylori clinical isolates at 4 ug/disk after 3 to 5 days by filter paper disk diffusion method
Helicobacter pylori [11] = assay: Antibacterial activity against Helicobacter pylori clinical isolates at 8 ug/disk after 3 to 5 days by filter paper disk diffusion method
Helicobacter pylori [12] = assay: Antibacterial activity against Helicobacter pylori clinical isolates at 16 ug/disk after 3 to 5 days by filter paper disk diffusion method
Helicobacter pylori [13] = assay: Antibacterial activity against Helicobacter pylori clinical isolates at 32 ug/disk after 3 to 5 days by filter paper disk diffusion method

SMILES	zone of inhibition at 8 µg/disc (Helicobacter pylori [1]) [mm]	zone of inhibition at 16 µg/disc (Helicobacter pylori [2]) [mm]	zone of inhibition at 32 µg/disc (Helicobacter pylori [3]) [mm]	zone of inhibition at 8 µg/disc (Helicobacter pylori [4]) [mm]	zone of inhibition at 16 µg/disc (Helicobacter pylori [5]) [mm]	zone of inhibition at 32 µg/disc (Helicobacter pylori [6]) [mm]	zone of inhibition at 0.5 µg/disc (Helicobacter pylori [7]) [mm]	zone of inhibition at 1 µg/disc (Helicobacter pylori [8]) [mm]	zone of inhibition at 2 µg/disc (Helicobacter pylori [9]) [mm]	zone of inhibition at 4 µg/disc (Helicobacter pylori [10]) [mm]	zone of inhibition at 8 µg/disc (Helicobacter pylori [11]) [mm]	zone of inhibition at 16 µg/disc (Helicobacter pylori [12]) [mm]	zone of inhibition at 32 µg/disc (Helicobacter pylori [13]) [mm]
O=[N+]([O-])c1ccc(-c2nnc(N3CCCCC3)s2)s1	6	6	6	6	6	6							
O=[N+]([O-])c1ccc(-c2nnc(N3CCOCC3)s2)s1	6	6	15	6	6	6							
O=[N+]([O-])c1ccc(-c2nnc(N3CCOCC3)s2)o1	33	36	42	30	33	48	10.8	17.5	23.7	28.4	32.1	36.6	40
O=[N+]([O-])c1ccc(-c2nnc(N3CCCCC3)s2)o1	28	32	35	27	32	34	13.7	19	24.9	27.4	30.5	33.5	36.5
Cn1c([N+](=O)[O-])cnc1-c1nnc(N2CCOCC2)s1	25	31	32	26	31	33	13.7	19.4	21.3	22.5	27.6	30.6	33.5
Cn1c([N+](=O)[O-])cnc1-c1nnc(N2CC[S+]([O-])CC2)s1	6	19	25	6	15	21							
O=[N+]([O-])c1ccc(-c2nnc(N3CCS(=O)(=O)CC3)s2)s1	6	6	16	6	6	6							
Cn1c([N+](=O)[O-])cnc1-c1nnc(N2CCSCC2)s1	27	31	34	24	27	30	9.9	15.6	20	23.7	27.4	30.4	32.4
O=[N+]([O-])c1ccc(-c2nnc(N3CCSCC3)s2)o1	32	35	41	26	37	42	10.8	18.3	23.4	27.7	30.1	32.9	36.9
O=[N+]([O-])c1ccc(-c2nnc(N3CCSCC3)s2)s1	16	18	22	16	19	21							
O=[N+]([O-])c1ccc(-c2nnc(N3CC[S+]([O-])CC3)s2)s1	34	39	46	32	35	41	13.7	18.5	23.6	28.1	34.4	39.9	45
O=[N+]([O-])c1ccc(-c2nnc(N3CCS(=O)(=O)CC3)s2)o1	43	50	> 50	41	43	46	16.6	21	25.5	30.7	36.1	40.7	44.3
O=[N+]([O-])c1ccc(-c2nnc(N3CC[S+]([O-])CC3)s2)o1	35	41	46	35	40	43	7.3	13.4	19.9	25.4	31	37.1	41.9
Cn1c([N+](=O)[O-])cnc1-c1nnc(N2CCCCC2)s1	6	6	6	6	6	6							
Cn1c([N+](=O)[O-])cnc1-c1nnc(N2CCS(=O)(=O)CC2)s1	32	40	45	27	36	40	10.6	14.9	19.3	25.9	30.2	33.9	37.3
CC1(C)S[C@@H]2[C@H](NC(=O)[C@H](N)c3ccc(O)cc3)C(=O)N2[C@H]1C(=O)O [AMOXICILLIN]								24.5					
Cc1ncc([N+](=O)[O-])n1CCO [METRONIDAZOLE]	18			11							16.3		
